Assays:
[1] = tested on: recombinant SARS2 encoding A173V M^pro; assay type: cell-based, SARS-CoV-2; conditions: read-out: IC50 (95% CI)
[2] = tested on: recombinant SARS2 encoding ∆P168/A173V M^pro; assay type: cell-based, SARS-CoV-2; conditions: read-out: IC50 (95% CI)
[3] = tested on: recombinant SARS2 encoding ∆P168 M^pro; assay: microbe, parasite or virus in culture; assay type: cell-based; conditions: […], A549-hACE2 cells
SARS2 M^pro P168S [4] = biological target: T1, SARS2 M^pro P168S (Severe acute respiratory syndrome coronavirus 2, UniProt P0DTD1, P3431S); conditions: cited from earlier work
SARS2 M^pro P168S [5] = biological target: T1, SARS2 M^pro P168S; assay type: cell-based, SARS-CoV-2
SARS2 M^pro P168G = conditions: cited from earlier work
SARS2 M^pro M49I = SARS2 M^pro M49I (Severe acute respiratory syndrome coronavirus 2, UniProt P0DTD1, M3312I); conditions: cited from earlier work

CC(C)(C)[C@H](NC(=O)C(F)(F)F)C(=O)N1C[C@H]2[C@@H]([C@H]1C(=O)N[C@H](C#N)C[C@@H]1CCNC1=O)C2(C)C [Nirmatrelvir, nirmatrelvir]
IC50 [1]: 36 nM

CCC(CC)COC(=O)[C@H](C)N[P@](=O)(OC[C@H]1O[C@@](C#N)(c2ccc3c(N)ncnn23)[C@H](O)[C@@H]1O)Oc1ccccc1 [Remdesivir, remdesivir]
IC50 [2]: 1500 nM | Fold change in antiviral EC50 [3]: 0.9 fold | Fold change in antiviral EC50 ([3]; listed as remdesivir): none of the mutants alter susceptibility | IC50 [1]: 1300 nM

CC(C)(C)NC(=O)N[C@H](C(=O)N1C[C@H]2[C@@H]([C@H]1C(=O)NC(CC1CCC1)C(=O)C(N)=O)C2(C)C)C(C)(C)C (stereo partly drawn) [boceprevir]
effect of amino acid change on inhibitor susceptibility (SARS2 M^pro P168S [4]): improve susceptibility | fold increase in susceptibility (SARS2 M^pro P168S [5]): 5.5 fold | effect of amino acid change on inhibitor susceptibility (SARS2 M^pro P168G): improve susceptibility | effect of substitution on inhibitor susceptibility (SARS2 M^pro M49I): little effect

Cn1cnc(Cn2c(=O)[nH]/c(=N\c3cc4cn(C)nc4cc3Cl)n(Cc3cc(F)c(F)cc3F)c2=O)n1 [Ensitrelvir, ensitrelvir]
IC50 [2]: 3.3 nM | IC50 [1]: 7.8 nM

CC(C)C[C@H](NC(=O)OCc1ccccc1)C(=O)N[C@@H](C[C@@H]1CCNC1=O)C(O)S(=O)(=O)[O-].[Na+] (stereo partly drawn) [GC376]
effect of amino acid change on inhibitor susceptibility (SARS2 M^pro P168G): no effect
